Where “and” joins values, the source holds several entries; their conditions need not be identical. Identical values can stand only once. Inconclusive results and toxic doses are left out. How the source made its calls: active means survival T/C of 150% or more; inactive means T/C below 125% in these data.
Tested on: P388 leukemia ip, CD2F1 mice, survival T/C
Assay: NCI In Vivo Anticancer Drug Screen. Data for tumor model P388 Leukemia (intraperitoneal) in CD2F1 (CDF1) mice
Details: endpoint: median survival time, higher = longer survival
Method in brief: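 Mice carrying the transplanted tumor received test compound or vehicle. Survival was recorded in each group, and the value is the treated-group measurement divided by that of the vehicle-treated control group.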

[1] = dose: 50.0 mg/kg/injection, schedule: Q01DX009 (ip), vehicle: suspension in saline
[2] = dose: 100.0 mg/kg/injection, schedule: Q01DX009 (ip), vehicle: suspension in saline
[3] = dose: 50.0 mg/kg/injection, schedule: Q01DX005 (ip), vehicle: Klucel (hydroxypropylcellulose) (HPC)
[4] = dose: 100.0 mg/kg/injection, schedule: Q01DX005 (ip), vehicle: Klucel (hydroxypropylcellulose) (HPC)
[5] = dose: 200.0 mg/kg/injection, schedule: Q01DX005 (ip), vehicle: Klucel (hydroxypropylcellulose) (HPC)
[6] = dose: 50.0 mg/kg/injection, schedule: Q01DX009 (ip), vehicle: saline
[7] = dose: 100.0 mg/kg/injection, schedule: Q01DX009 (ip), vehicle: saline
[8] = dose: 200.0 mg/kg/injection, schedule: Q01DX009 (ip), vehicle: saline
[9] = dose: 12.5 mg/kg/injection, schedule: Q01DX005 (ip), vehicle: Klucel (hydroxypropylcellulose) (HPC)
[10] = dose: 25.0 mg/kg/injection, schedule: Q01DX005 (ip), vehicle: Klucel (hydroxypropylcellulose) (HPC)
[11] = dose: 50.0 mg/kg/injection, schedule: Q01DX009 (ip), vehicle: Klucel (hydroxypropylcellulose) (HPC)
[12] = dose: 60.0 mg/kg/injection, schedule: Q01DX005 (ip), vehicle: saline
[13] = dose: 120.0 mg/kg/injection, schedule: Q01DX005 (ip), vehicle: saline

Measured: T/C

O=[N+]([O-])c1ccc(/C=C(/c2ccc([N+](=O)[O-])o2)S(=O)(=O)c2ccccc2)o1
inactive: [1] 95 % of control | [2] 100 % of control

O=c1[nH]c2nc3ccccc3n2c(=O)c2ccccc12
inactive: dose: 100.0 mg/kg/injection, schedule: Q01DX001 (ip), vehicle: Klucel (hydroxypropylcellulose) (HPC) 98 % of control | dose: 200.0 mg/kg/injection, schedule: Q01DX001 (ip), vehicle: Klucel (hydroxypropylcellulose) (HPC) 98 % of control | dose: 400.0 mg/kg/injection, schedule: Q01DX001 (ip), vehicle: Klucel (hydroxypropylcellulose) (HPC) 95 % of control

N#CC(c1ccccc1)C1NC(C(=O)O)CS1 (centres undefined)
inactive: [1] 106 % of control | [2] 93 % of control | dose: 200.0 mg/kg/injection, schedule: Q01DX009 (ip), vehicle: suspension in saline 93 % of control

COc1cc(C)c2nc3c(C)c(Cl)ccc3c(Cl)c2c1
inactive: dose: 3.0 mg/kg/injection, schedule: Q01DX005 (ip), vehicle: Klucel + Tween-80 98 % of control | dose: 6.0 mg/kg/injection, schedule: Q01DX005 (ip), vehicle: Klucel + Tween-80 100 % of control | dose: 12.0 mg/kg/injection, schedule: Q01DX005 (ip), vehicle: Klucel + Tween-80 97 % of control | dose: 50.0 mg/kg/injection, schedule: Q01DX005 (ip), vehicle: Klucel + Tween-80 88 % of control

CCC1(C)c2[nH]c3ccccc3c2C(=O)NN1C(C)=O (centres undefined)
inactive: [3] 104 % of control | [4] 107 % of control | [5] 112 % of control

CCC1(O)CCC2C3CC=C4CCCCC4C3CCC21C (centres undefined)
inactive: [6] 107 % of control | [7] 100 % of control | [8] 100 % of control

CC(C)(C)[Si](C)(C)O[C@H]1C[C@@H](O[Si](C)(C)C(C)(C)C)C=C1S(=O)(=O)c1ccccc1
inactive: [9] 101 % of control | [10] 107 % of control | [3] 111 % of control

CCN(CC)c1ccc(C(=N)c2ccc(N(CC)CC)cc2)cc1
inactive: [9] 101 % of control | [10] 99 % of control | [3] 89 % of control and 90 % of control

O=[N+]([O-])c1ccc(/C=C(/c2ccc([N+](=O)[O-])o2)S(=O)(=O)C(Cl)(Cl)Cl)cc1
inactive: dose: 25.0 mg/kg/injection, schedule: Q01DX009 (ip), vehicle: saline 100 % of control | [6] 89 % of control | [7] 91 % of control | [2] 86 % of control

CCOC(=O)Nc1cc(Cl)c([N+](=O)[O-])c([N+](=O)[O-])n1
inactive: dose: 100.0 mg/kg/injection, schedule: Q04DX002 (ip), vehicle: saline 101 % of control | dose: 200.0 mg/kg/injection, schedule: Q04DX002 (ip), vehicle: saline 103 % of control | dose: 400.0 mg/kg/injection, schedule: Q04DX002 (ip), vehicle: saline 110 % of control

CCC1OC(O)C=CC1=O (centres undefined)
inactive: dose: 1.5 mg/kg/injection, schedule: Q01DX005 (ip), vehicle: saline 99 % of control | dose: 3.0 mg/kg/injection, schedule: Q01DX005 (ip), vehicle: saline 93 % of control

CC(=O)CC1(O)C(=O)Nc2ccc(Br)cc21 (centres undefined)
inactive: [11] 100 % of control | dose: 100.0 mg/kg/injection, schedule: Q01DX009 (ip), vehicle: Klucel (hydroxypropylcellulose) (HPC) 108 % of control | dose: 200.0 mg/kg/injection, schedule: Q01DX009 (ip), vehicle: Klucel (hydroxypropylcellulose) (HPC) 92 % of control

Cc1nc(N)[nH]c(=O)c1CCCNc1ccc(C(=O)NC(CCC(=O)O)C(=O)O)cc1 (centres undefined)
inactive: [3] 100 % of control | [4] 97 % of control | [5] 100 % of control

CC(C)CC(=O)Cc1nc2n(c1O)C(=N)N=N2
inactive: [12] 105 % of control | [13] 98 % of control | dose: 240.0 mg/kg/injection, schedule: Q01DX005 (ip), vehicle: saline 110 % of control

Cc1ccc(OP(=O)(Oc2ccc(C)cc2)Oc2ccc(C)cc2)cc1.Cc1ccc(OP(=O)(Oc2ccc(C)cc2)Oc2ccc(C)cc2)cc1.Cc1ccc(OP(=O)(Oc2ccc(C)cc2)Oc2ccc(C)cc2)cc1.Cc1ccc(OP(=O)(Oc2ccc(C)cc2)Oc2cccc(C)c2)cc1.[Cd+2].[O-][Cl+3]([O-])([O-])O
inactive: dose: 12.5 mg/kg/injection, schedule: Q01DX009 (ip), vehicle: Klucel (hydroxypropylcellulose) (HPC) 95 % of control | dose: 25.0 mg/kg/injection, schedule: Q01DX009 (ip), vehicle: Klucel (hydroxypropylcellulose) (HPC) 96 % of control | [11] 93 % of control and 96 % of control

CC(C)NC(=O)OCc1c(COC(=O)NC(C)C)c(-c2ccc(Cl)c(Cl)c2)n2c1C[C@@H](OC(=O)CCC(=O)O)C2 (tested in a mixture with another compound)
inactive: dose: 12.5 mg/kg/injection, schedule: Q01DX005 (ip), vehicle: water 106 % of control and 107 % of control | dose: 25.0 mg/kg/injection, schedule: Q01DX005 (ip), vehicle: water 107 % of control and 108 % of control | dose: 50.0 mg/kg/injection, schedule: Q01DX005 (ip), vehicle: water 111 % of control and 123 % of control | dose: 50.0 mg/kg/injection, schedule: Q04DX002 (ip), vehicle: water 103 % of control | dose: 100.0 mg/kg/injection, schedule: Q04DX002 (ip), vehicle: water 111 % of control | dose: 200.0 mg/kg/injection, schedule: Q04DX002 (ip), vehicle: water 107 % of control

NC(=O)/C(N=Nc1cc(S(=O)(=O)O)ccc1Cl)=N\Nc1cc(S(=O)(=O)O)ccc1Cl
inactive: [3] 100 % of control | [4] 91 % of control | [5] 94 % of control

NCCCC(N)(C(=O)O)C(F)F (centres undefined)
inactive: dose: 50.0 mg/kg/injection, schedule: Q01DX005 (ip), vehicle: saline 106 % of control | dose: 50.0 mg/kg/injection, schedule: Q01DX009 (ip), vehicle: distilled water + alcohol 112 % of control | [6] 87 % of control | dose: 100.0 mg/kg/injection, schedule: Q01DX005 (ip), vehicle: saline 103 % of control | dose: 100.0 mg/kg/injection, schedule: Q01DX009 (ip), vehicle: distilled water + alcohol 112 % of control | [7] 103 % of control | dose: 200.0 mg/kg/injection, schedule: Q01DX005 (ip), vehicle: saline 103 % of control | dose: 200.0 mg/kg/injection, schedule: Q01DX009 (ip), vehicle: distilled water + alcohol 115 % of control | [8] 110 % of control | dose: 400.0 mg/kg/injection, schedule: Q01DX009 (ip), vehicle: distilled water + alcohol 119 % of control | dose: 800.0 mg/kg/injection, schedule: Q01DX009 (ip), vehicle: distilled water + alcohol 111 % of control

Cc1onc(-c2ccccc2)c1C(=O)c1ccccc1
inactive: [6] 99 % of control | [7] 100 % of control | [8] 99 % of control

CC(C)CS(=O)(=O)c1ncnc2nc[nH]c12
inactive: [3] 102 % of control | [4] 97 % of control | [5] 91 % of control

NCCCCC(C(=O)NC(CCC(=O)OCc1ccccc1)C(=O)Oc1ccc([N+](=O)[O-])cc1)N(C(=O)OCc1ccccc1)C(=O)OCc1ccccc1 (centres undefined)
inactive: dose: 50.0 mg/kg/injection, schedule: Q01DX005 (ip), vehicle: saline with Tween-80 100 % of control | dose: 100.0 mg/kg/injection, schedule: Q01DX005 (ip), vehicle: saline with Tween-80 100 % of control | dose: 200.0 mg/kg/injection, schedule: Q01DX005 (ip), vehicle: saline with Tween-80 92 % of control

CC(C)(C)C1CN2CCO[Si](CC[Si](C)(C)C)(OCC2)O1 (centres undefined)
inactive: [3] 98 % of control | [4] 97 % of control | [5] 88 % of control

CCC1COCC1Cc1cncn1C (centres undefined)
inactive: [12] 100 % of control | [13] 103 % of control

— PubChem BioAssay AID330 (DTP/NCI, 2004)
